{"source": "patent US20250368652A1", "about": "“MICROBIOCIDAL BICYCLIC HETEROCYCLIC CARBOXAMIDE DERIVATIVES” (SYNGENTA CROP PROTECTION AG, priority 2022, published 2025)", "key": {"[1]": {"test_system": "Botryotinia fuckeliana (Botrytis cinerea)", "assay": "Botryotinia fuckeliana (Botrytis cinerea) / liquid culture (gray mould)", "format": "cell-based", "settings": "liquid culture (Vogels broth), growth inhibition photometrically 3-4 days after application, compared to untreated control", "experimental": "(§1) Mycelia fragments or conidia suspensions of a fungus prepared either freshly from liquid cultures of the fungus or from cryogenic storage, are directly mixed into nutrient broth. DMSO solutions of the test compound (max. 10 mg/mL) are diluted with 0.025% Tween20 by a factor of 50 and 10 μL of this solution is pipetted into a microtiter plate (96-well format). The nutrient broth containing the fungal spores/mycelia fragments is then added to give an end concentration of the tested compound. The test plates are incubated in the dark at 24° C. and 96% relative humidity. The inhibition of fungal growth is determined photometrically after 2 to 7 days, depending on the pathosystem, and percent antifungal activity relative to the untreated check is calculated. Conidia of the fungus from cryogenic storage are directly mixed into nutrient broth (Vogels broth). After placing a (DMSO) solution of test compound into a microtiter plate (96-well format), the nutrient broth containing the fungal spores is added. The test plates are incubated at 24° C. and the inhibition of growth is determined photometrically 3-4 days after application."}, "[2]": {"test_system": "Glomerella lagenarium (Colletotrichum lagenarium)", "assay": "Glomerella lagenarium (Colletotrichum lagenarium) / liquid culture (anthracnose)", "format": "cell-based", "settings": "Colletotrichum orbiculare, liquid culture (PDB), growth inhibition photometrically 3-4 days after application, compared to untreated control", "experimental": "as §1, with “nutrient broth (PDB potato dextrose broth). After” for “nutrient broth (Vogels broth). After”, “growth is measured photometrically 3-4” for “growth is determined photometrically 3-4”"}, "[3]": {"test_system": "Puccinia recondita f. sp. tritici", "assay": "Puccinia recondita f. sp. tritici / wheat / leaf disc curative (brown rust)", "format": "in vivo", "settings": "200 ppm, wheat leaf segments cv. Kanzler, applied 1 day after inoculation, compared to untreated control"}, "[4]": {"test_system": "Blumeria graminis f. sp. tritici (Erysiphe graminis f. sp. tritici)", "assay": "Blumeria graminis f. sp. tritici / wheat / leaf disc preventative (powdery mildew on wheat)", "format": "in vivo", "settings": "200 ppm, wheat leaf segments cv. Kanzler, inoculated 1 day after application, compared to untreated control", "experimental": "Leaf disks or leaf segments of various plant species are cut from plants grown in a greenhouse. The cut leaf disks or segments are placed in multiwell plates (24-well format) onto water agar. The leaf disks are sprayed with a test solution before (preventative) or after (curative) inoculation. Compounds to be tested are prepared as DMSO solutions (max. 10 mg/mL) which are diluted to the appropriate concentration with 0.025% Tween20 just before spraying. The inoculated leaf disks or segments are incubated under defined conditions (temperature, relative humidity, light, etc.) according to the respective test system. A single evaluation of disease level is carried out 3 to 14 days after inoculation, depending on the pathosystem. Percent disease control relative to the untreated check leaf disks or segments is then calculated. Wheat leaf segments cv. Kanzler are placed on agar in a multiwell plate (24-well format) and sprayed with the formulated test compound diluted in water. […] The inoculated leaf disks are incubated at 20° C. and 60% rh under a light regime of 24 h darkness followed by 12 h light/12 h darkness in a climate chamber and the activity of a compound is assessed as percent disease control compared to untreated when an appropriate level of disease damage appears on untreated check leaf segments (6-8 days after application)."}, "[5]": {"test_system": "Phaeosphaeria nodorum (Septoria nodorum)", "assay": "Phaeosphaeria nodorum (Septoria nodorum) / wheat / leaf disc preventative (glume blotch)", "format": "in vivo", "settings": "200 ppm, wheat leaf segments cv. Kanzler, inoculated 2 days after application, compared to untreated control", "experimental": "Leaf disks or leaf segments of various plant species are cut from plants grown in a greenhouse. The cut leaf disks or segments are placed in multiwell plates (24-well format) onto water agar. The leaf disks are sprayed with a test solution before (preventative) or after (curative) inoculation. Compounds to be tested are prepared as DMSO solutions (max. 10 mg/mL) which are diluted to the appropriate concentration with 0.025% Tween20 just before spraying. The inoculated leaf disks or segments are incubated under defined conditions (temperature, relative humidity, light, etc.) according to the respective test system. A single evaluation of disease level is carried out 3 to 14 days after inoculation, depending on the pathosystem. Percent disease control relative to the untreated check leaf disks or segments is then calculated. Wheat leaf segments cv. Kanzler are placed on agar in a multiwell plate (24-well format) and sprayed with the formulated test compound diluted in water. […] The inoculated test leaf disks are incubated at 20° C. and 75% rh under a light regime of 12 h light/12 h darkness in a climate cabinet and the activity of a compound is assessed as percent disease control compared to untreated when an appropriate level of disease damage appears in untreated check leaf disks (5-7 days after application)."}, "Phytophthora infestans": {"test_system": "Phytophthora infestans", "format": "in vivo", "settings": "200 ppm; tomato leaf disks, preventative, inoculated 1 day after application; compared to untreated control"}, "[6]": {"test_system": "Magnaporthe grisea (Pyricularia oryzae)", "format": "in vivo", "settings": "200 ppm; rice leaf segments cv. Ballila, preventative, inoculated 2 days after application; compared to untreated control"}}, "data": [{"smiles": "O=C(NCC(F)c1ccc(Cl)cc1Cl)c1c(Oc2cccc(C3CC3)c2)cnn2nccc12", "note": "(stereo not shown) [Compound P-1.15, 5-(3-cyclopropylphenoxy)-N-[2-(2,4-dichlorophenyl)-2-fluoro-ethyl]pyrazolo[1,5-b]pyridazine-4-carboxamide]", "values": [{"measurement": "inhibition of growth at 20 ppm", "setting": "[1]", "value": "≥ 80", "unit": "%"}, {"measurement": "inhibition of growth at 20 ppm", "setting": "[2]", "value": "≥ 80", "unit": "%"}]}, {"smiles": "O=C(NCC(F)c1ccc(Cl)cc1Cl)c1c(Oc2cccc(C3CC3)c2)cnc2ccnn12", "note": "(stereo not shown) [Compound P-1.3, 6-(3-cyclopropylphenoxy)-N-[2-(2,4-dichlorophenyl)-2-fluoro-ethyl]pyrazolo[1,5-a]pyrimidine-7-carboxamide]", "values": [{"measurement": "inhibition of growth at 20 ppm", "setting": "[1]", "value": "≥ 80", "unit": "%"}, {"measurement": "inhibition of growth at 20 ppm", "setting": "[2]", "value": "≥ 80", "unit": "%"}]}, {"smiles": "O=C(NCCc1ccc(Cl)cc1Cl)c1c(Oc2cccc(C3CC3)c2)cnc2nccn12", "note": "[Compound P-1.6, 6-(3-cyclopropylphenoxy)-N-[2-(2,4-dichlorophenyl)ethyl]imidazo[1,2-a]pyrimidine-5-carboxamide]", "values": [{"measurement": "inhibition of growth at 20 ppm", "setting": "[2]", "value": "≥ 80", "unit": "%"}]}, {"smiles": "O=C(NCC(F)c1ccc(Cl)cc1Cl)c1c(Oc2cccc(C3CC3)c2)cnc2ncnn12", "note": "(stereo not shown) [Compound P-1.2, 6-(3-cyclopropylphenoxy)-N-[2-(2,4-dichlorophenyl)-2-fluoro-ethyl]-[1,2,4]triazolo[1,5-a]pyrimidine-7-carboxamide]", "values": [{"measurement": "inhibition of growth at 20 ppm", "setting": "[1]", "value": "≥ 80", "unit": "%"}, {"measurement": "inhibition of growth at 20 ppm", "setting": "[2]", "value": "≥ 80", "unit": "%"}]}, {"smiles": "O=C(NCC(F)c1ccc(Cl)cc1Cl)c1c(Oc2cccc(C3CC3)c2)cnc2cc(F)nn12", "note": "(stereo not shown) [Compound P-1.10, 6-(3-cyclopropylphenoxy)-N-[2-(2,4-dichlorophenyl)-2-fluoro-ethyl]-2-fluoro-pyrazolo[1,5-a]pyrimidine-7-carboxamide]", "values": [{"measurement": "inhibition of growth at 20 ppm", "setting": "[1]", "value": "≥ 80", "unit": "%"}, {"measurement": "inhibition of growth at 20 ppm", "setting": "[2]", "value": "≥ 80", "unit": "%"}]}, {"smiles": "COc1nn2c(C(=O)NCC(F)c3ccc(Cl)cc3Cl)c(Oc3cccc(C4CC4)c3)cnc2c1C#N", "note": "(stereo not shown) [Compound P-1.18, 3-cyano-6-(3-cyclopropylphenoxy)-N-[2-(2,4-dichlorophenyl)-2-fluoro-ethyl]-2-methoxy-pyrazolo[1,5-a]pyrimidine-7-carboxamide]", "values": [{"measurement": "inhibition of growth at 20 ppm", "setting": "[1]", "value": "≥ 80", "unit": "%"}]}, {"smiles": "N#Cc1cc2ncc(Oc3cccc(C4CC4)c3)c(C(=O)NCC(F)c3ccc(Cl)cc3Cl)n2n1", "note": "(stereo not shown) [Compound P-1.8, 2-cyano-6-(3-cyclopropylphenoxy)-N-[2-(2,4-dichlorophenyl)-2-fluoro-ethyl]pyrazolo[1,5-a]pyrimidine-7-carboxamide]", "values": [{"measurement": "inhibition of growth at 20 ppm", "setting": "[1]", "value": "≥ 80", "unit": "%"}, {"measurement": "inhibition of growth at 20 ppm", "setting": "[2]", "value": "≥ 80", "unit": "%"}, {"measurement": "control of Puccinia recondita f. sp. tritici", "setting": "[3]", "value": "at least 80%"}]}, {"smiles": "Cc1cnn2c(C(=O)NCC(F)c3ccc(Cl)cc3Cl)c(Oc3cccc(C4CC4)c3)cnc12", "note": "(stereo not shown) [Compound P-1.11, 6-(3-cyclopropylphenoxy)-N-[2-(2,4-dichlorophenyl)-2-fluoro-ethyl]-3-methyl-pyrazolo[1,5-a]pyrimidine-7-carboxamide]", "values": [{"measurement": "inhibition of growth at 20 ppm", "setting": "[1]", "value": "≥ 80", "unit": "%"}, {"measurement": "inhibition of growth at 20 ppm", "setting": "[2]", "value": "≥ 80", "unit": "%"}]}, {"smiles": "O=C(NCC(F)c1ccc(Cl)cc1Cl)c1c(Oc2cccc(C3CC3)c2)cnc2nccn12", "note": "(stereo not shown) [Compound P-1.1, 6-(3-cyclopropylphenoxy)-N-[2-(2,4-dichlorophenyl)-2-fluoro-ethyl]imidazo[1,2-a]pyrimidine-5-carboxamide]", "values": [{"measurement": "inhibition of growth at 20 ppm", "setting": "[1]", "value": "≥ 80", "unit": "%"}, {"measurement": "inhibition of growth at 20 ppm", "setting": "[2]", "value": "≥ 80", "unit": "%"}]}, {"smiles": "O=C(NCC(F)c1ccc(Cl)cc1Cl)c1c(Oc2cccc(C3CC3)c2)cnc2cc(Cl)nn12", "note": "(stereo not shown) [Compound P-1.12, 2-chloro-6-(3-cyclopropylphenoxy)-N-[2-(2,4-dichlorophenyl)-2-fluoro-ethyl]pyrazolo[1,5-a]pyrimidine-7-carboxamide]", "values": [{"measurement": "inhibition of growth at 20 ppm", "setting": "[1]", "value": "≥ 80", "unit": "%"}, {"measurement": "inhibition of growth at 20 ppm", "setting": "[2]", "value": "≥ 80", "unit": "%"}]}, {"smiles": "Cc1cn2c(C(=O)NCC(F)c3ccc(Cl)cc3Cl)c(Oc3cccc(C4CC4)c3)cnc2n1", "note": "(stereo not shown) [Compound P-1.7, 6-(3-cyclopropylphenoxy)-N-[2-(2,4-dichlorophenyl)-2-fluoro-ethyl]-2-methyl-imidazo[1,2-a]pyrimidine-5-carboxamide]", "values": [{"measurement": "inhibition of growth at 20 ppm", "setting": "[1]", "value": "≥ 80", "unit": "%"}, {"measurement": "inhibition of growth at 20 ppm", "setting": "[2]", "value": "≥ 80", "unit": "%"}]}, {"smiles": "O=C(NCCc1ccc(Cl)cc1Cl)c1c(Oc2cccc(C3CC3)c2)cnc2ncnn12", "note": "[Compound P-1.5, 6-(3-cyclopropylphenoxy)-N-[2-(2,4-dichlorophenyl)ethyl]-[1,2,4]triazolo[1,5-a]pyrimidine-7-carboxamide]", "values": [{"measurement": "inhibition of growth at 20 ppm", "setting": "[1]", "value": "≥ 80", "unit": "%"}]}, {"smiles": "Cc1nc2ncc(Oc3cccc(C4CC4)c3)c(C(=O)NCC(F)c3ccc(Cl)cc3Cl)n2n1", "note": "(stereo not shown) [Compound P-1.14, 6-(3-cyclopropylphenoxy)-N-[2-(2,4-dichlorophenyl)-2-fluoro-ethyl]-2-methyl-[1,2,4]triazolo[1,5-a]pyrimidine-7-carboxamide]", "values": [{"measurement": "inhibition of growth at 20 ppm", "setting": "[1]", "value": "≥ 80", "unit": "%"}, {"measurement": "inhibition of growth at 20 ppm", "setting": "[2]", "value": "≥ 80", "unit": "%"}]}, {"smiles": "O=C(NC[C@H](F)c1ccc(Cl)cc1Cl)c1c(Oc2cccc(C3CC3)c2)cnc2c(Cl)cnn12", "note": "(single isomer, unassigned) [Compound P-1.16]", "values": [{"measurement": "inhibition of growth at 20 ppm", "setting": "[1]", "value": "≥ 80", "unit": "%"}, {"measurement": "inhibition of growth at 20 ppm", "setting": "[2]", "value": "≥ 80", "unit": "%"}, {"measurement": "control of Blumeria graminis f. sp. tritici", "setting": "[4]", "value": "at least 80%"}, {"measurement": "control of Phaeosphaeria nodorum", "setting": "[5]", "value": "at least 80%"}]}, {"smiles": "O=C(NCC(F)c1ccc(Cl)cc1Cl)c1c(Oc2cccc(C3CC3)c2)cnc2c(Cl)cnn12", "note": "(racemic) [Compound P-1.9, 3-chloro-6-(3-cyclopropylphenoxy)-N-[2-(2,4-dichlorophenyl)-2-fluoro-ethyl]pyrazolo[1,5-a]pyrimidine-7-carboxamide]", "values": [{"measurement": "inhibition of growth at 20 ppm", "setting": "[1]", "value": "≥ 80", "unit": "%"}, {"measurement": "control of Phytophthora infestans", "setting": "Phytophthora infestans", "value": "at least 80%"}, {"measurement": "control of Magnaporthe grisea", "setting": "[6]", "value": "at least 80%"}]}, {"smiles": "Cc1nn2c(C(=O)NCC(F)c3ccc(Cl)cc3Cl)c(Oc3cccc(C4CC4)c3)cnc2c1C#N", "note": "(stereo not shown) [Compound P-1.20, 3-cyano-6-(3-cyclopropylphenoxy)-N-[2-(2,4-dichlorophenyl)-2-fluoro-ethyl]-2-methyl-pyrazolo[1,5-a]pyrimidine-7-carboxamide]", "values": [{"measurement": "inhibition of growth at 20 ppm", "setting": "[1]", "value": "≥ 80", "unit": "%"}, {"measurement": "inhibition of growth at 20 ppm", "setting": "[2]", "value": "≥ 80", "unit": "%"}]}, {"smiles": "Cc1nn2c(C(=O)NCC(F)c3ccc(Cl)cc3Cl)c(Oc3cccc(C4CC4)c3)cnc2c1Cl", "note": "(stereo not shown) [Compound P-1.19, 3-chloro-6-(3-cyclopropylphenoxy)-N-[2-(2,4-dichlorophenyl)-2-fluoro-ethyl]-2-methyl-pyrazolo[1,5-a]pyrimidine-7-carboxamide]", "values": [{"measurement": "inhibition of growth at 20 ppm", "setting": "[1]", "value": "≥ 80", "unit": "%"}]}]}
